In patent publication US20220064167A1, “IMIDAZO-PYRAZOLE CARBOXAMIDE DERIVATIVES AS ANTICANCER AGENTS AND THE SYNTHESIS THEREOF” (AVIDIN KFT., priority 2018, published 2022):

What was measured:
[1] = system: CD34 expression in HL-60 cells; assay: quantitative real time PCR of stem cell marker (FIG. 3A); type: cell-based, human; conditions: HL-60, 24 h after treatment, normalized to ACTB
Method: (§1) HL-60 cells (10×10^6) were plated in 100 mm tissue culture dishes (Corning Life Sciences) in RPMI 10% FCS. Cells were treated in 10 mL total volume with the compound described in Example 83 24 h after treatment, nucleic acid preparation was done by using the Bioneer RNA purification kit (Bioneer, Viral RNA extraction kit, Daejeon, South Korea) according to an already published protocol (Szebeni et al. 2017a). The quality and quantity of the isolated RNA were measured with NanoDrop1000 Version 3.8.1. (Thermo Fisher Scientific). Reverse transcription from 3 μg of total RNA was performed with the High-Capacity cDNA Archive Kit (Applied Biosystems, Foster City, Calif., USA) in a total volume of 30 μL according to the manufacturer's protocol. Quantitative-real time PCR was carried out using gene specific primers for CD33 (primer sequences: forward 5′ […] 3′, reverse 5′ […] 3′) and CD34, (primer sequences: forward 5′ gcgctttgcttgctgagt 3′, reverse 5′ […] 3′) using Sybr Green detection on a LightCycler Nano instrument (Roche, Hungary). Relative gene expression data was normalized to ACTB (beta actin, primer sequences: forward 5′ attggcaatgagcggttc 3′, reverse 5′ cgtggatgccacaggact 3′) expression.

[2] = system: CD33 expression in HL-60 cells; assay: as above; type: cell-based, human; conditions: HL-60, 24 h after treatment, normalized to ACTB
Method: as §1

[3] = system: 4T1 mouse cells inoculated into the mammary gland of BalbC mouse; assay: mammary carcinoma mouse model (FIG. 6); type: in vivo; conditions: 3 mg/kg intravenously, every other day from day 16, 6 occasions, compared to vehicle
Method: The effect on mammary carcinoma was studied on BalbC mouse model inoculated subcutaneously into the mammary gland with 4T1 mouse cells (ATCC) (100,000 cells/animal). Two groups were formed from randomly selected mice, with 8 animals in both groups. Group 1: control group, it was only administered a carrier (0.1 mL, 0.9% NaCl solution) intravenously; group 2: group treated with compound 83, it was administered 3 mg/kg of compound 83 in PEG100:Solutol:PBS (1:4:15 vol ratio), intravenously after the tumor reached 300 mm^3 (day 16). The treatments were performed from the sixteenth day, every other day, for a total of 6 occasions. Starting from the 16th day on every day the size of the increasing tumours was determined in the case of each animal, and the group average was represented per group (FIG. 6). The standard deviation was determined in SEM. It can be seen that the treatment with compound 83 reduced the size of the increasing mammary tumour.

[4] = system: SKOV-3 cells (ovarian adenocarcinoma); assay: viability assay (Table 2); type: cell-based; conditions: Homo sapiens, SK-OV-3
Method: (§2) For viability assays cells were seeded in 96 well plates (MCF7 and 4T1: 6000, HL60: 120.000 cells/well) and incubated overnight. Compounds were dissolved in dimethyl sulfoxide (DMSO). Cells were treated with an increasing concentration of compounds having the general formula (I.) (156 nM-100 μM). Cell viability was determined after 72h incubation. Resazurin reagent (Sigma-Aldrich) was dissolved in PBS (pH 7.4) at 0.15 mg/ml concentration, sterile filtered (0.22 μm, Merck Millipore) and aliquoted at −20° C. Resazurin reagent (Sigma-Aldrich) was added at a final concentration of 25 μg/ml. After 2 hours incubation at 37° C. 5% CO2 fluorescence (530 nm excitation/580 nm emission) was recorded on a multimode microplate reader (Cytofluor4000, PerSeptive Biosytems). Viability was calculated with relation to untreated control cells and blank wells containing media without cells. IC50 values (50% inhibiting concentration) were calculated by GraphPad Prism® 5 (La Jolla, Calif., USA).
(§3) HT168 (human melanoma), HT199 (human melanoma), HT29 (human colorectal adenocarcinoma), MOLT4 (human leukemia) and U937 (human lymphoma) cells were maintained in Roswell Park Memorial Institute 1640 medium (RPMI-1640) 10% FCS. SKOV-3 cells were maintained in Dulbecco's Modified Eagle Medium/McCoy's medium (DMEM/McCoy) 10% FCS.
(§4) Media were supplemented with 2 mM GlutaMAX, and 100 U/mL penicillin, 100 μg/mL streptomycin (Life Technologies, Carlsbad, Calif., USA). Cell cultures were maintained at 37° C. in a humidified incubator in an atmosphere of 5% CO2 (Sanyo, Japan).
(§5) Viability assays were performed as described in Example 102.

U937 (human lymphoma) = assay: viability assay (Table 2); type: cell-based; conditions: U-937
Method: as §2, §3, §4, §5

MOLT4 (human leukemia) = assay: viability assay (Table 2); type: cell-based; conditions: MOLT-4
Method: as §2, §3, §4, §5

[5] = system: HeLa (human cervical carcinoma); assay: viability assay (Table 2); type: cell-based
Method: as §2
(§6) GBM2 (human glioblastoma), HeLa (human cervical carcinoma), MIA PaCa-2 (human pancreas carcinoma) and U87MG (human glioblastoma) cells were maintained in Dulbecco's Modified Eagle Medium (DMEM) 10% fetal calf serum (FCS, Gibco). A375 (human melanoma), A549 (human lung adenocarcinoma) and HEP3B (human hepatoma) cells were maintained in Dulbecco's Modified Eagle Medium/Nutrient Mixture F-12 (DMEM/F12) 10% FCS.
as §4, §5

[6] = system: HL60 human acute myeloid leukaemia cells in SCID immune-deficient mouse; assay: leukaemia mouse model (FIG. 7); type: in vivo; conditions: 3 mg/kg intravenously, 10 occasions
Method: The effect on leukaemia was studied on SCID immune-deficient mouse model inoculated intravenously with HL60 human acute myeloid leukaemia cells (ATCC) (1 million cells/animal). Two groups were formed from randomly selected mice, with 9 animals in each group. Group1: control group, it was only administered a carrier (0.1 mL, 0.9% NaCl solution) intravenously; group 2: group treated with compound 60, it was administered 3 mg/kg of compound 60 in PEG100:Solutol:PBS (1:4:15 vol ratio), intravenously.
The treatments were performed from the third day, on five consecutive occasions per week, for 2 weeks, on a total of 10 occasions. As time went on, every day we determined the number of surviving animals and represented it in percentage per group as compared to the total initial number of animals (FIG. 7). It can be seen that the 3 mg/kg dose of compound 60 administered intravenously was effective, the treatment with compound 60 increased the LD50 (from day 26 to day 42) and the survival rate of the animals.

[7] = system: U87MG (human glioblastoma); assay: viability assay (Table 2); type: cell-based; conditions: U-87 MG, read-out: IC50 U87
Method: as §2, §6, §4, §5

HEP3B (human hepatoma) = assay: viability assay (Table 2); type: cell-based
Method: as §2, §6, §4, §5

Row | Structure (SMILES) | expression of haematopoietic stem cell marker CD34 [1] | expression of haematopoietic stem cell marker CD33 [2] | size of the increasing mammary tumour [3] | IC50 [4] [nM] | IC50 (U937 (human lymphoma)) [nM] | IC50 (MOLT4 (human leukemia)) [nM] | IC50 [5] [nM] | survival rate of the animals [6] | median survival time ([6]; control day 26) [days] | IC50 [7] [nM] | IC50 (HEP3B (human hepatoma)) [nM]
1 | CC(C)(C)Nc1c(C(C)(C)C)[nH]c2c(C(=O)Nc3ccc(N)cc3)cnn12 [Example 83, N-(4-Aminophenyl)-2-(tert-butyl)-3-(tert-butylamino)-1H-imidazo[1,2-b]pyrazole-7-carboxamide] | decreased | decreased | reduced | 150 | 250 | 150 | 100 |  |  |  | 
2 | CC(C)(C)Nc1c(C(C)(C)C)[nH]c2c(C(=O)Nc3ccc(F)cc3)cnn12 [Example 60, 2-(Tert-butyl)-N-(4-fluorophenyl)-3-((tert-butyl-2-yl)amino)-1H-imidazo[1,2-b]pyrazole-7-carboxamide] |  |  |  |  |  |  |  | increased | 42 | 250 | 250
